The results in this text go back to patent publication US10105357B2, “Indication of antibiotic drugs for preparation of cancer inhibition pharmaceutical composition” (LAUNX BIOMEDICAL CO., LTD., priority 2014, dated 2018).

Counter-ions that a name gives are not always drawn. Like-named read-outs stand apart in the source and are kept apart here.

Holding throughout (format): cell-based, human
Assay [1] relates to HI650 (Lung Adenocarcinoma). As to the kind of experiment: Cell viability analysis, lung cancer HI650. The following applies: Homo sapiens, NCI-H1650, 72 h.
The subject of assay [2] is A549 (Lung Adenocarcinoma). As to the kind of experiment: Cell viability analysis, lung cancer A549. The following applies: Homo sapiens, A549, 72 h.
The subject of assay [3] is AGS (Gastric Adenocarcinoma). In words: Cell viability analysis, gastric cancer AGS. The following applies: Homo sapiens, 72 h.
The test system of assay [4] is MKN-45 (Gastric Adenocarcinoma). In words: Cell viability analysis, gastric cancer MKN-45. The following applies: Homo sapiens, MKN-45, 72 h.
For assay [5], the system named is HeLa (Cervix Adenocarcinoma). As to the kind of experiment: Cell viability analysis, cervical cancer HeLa. The following applies: Homo sapiens, HeLa, 72 h.
Assay [6] concerns MCF7 (Mammary Gland, Adenocarcinoma). In words: Cell viability analysis, breast cancer MCF7. To be noted: Homo sapiens, MCF7, 72 h.
Assay [7] concerns TSGH-8301 (Urinary Bladder Carcinoma). As to the kind of experiment: Cell viability analysis, bladder cancer TSGH-8301. To be noted: Homo sapiens, 72 h.
Assay [8] has as its system HL-60 (Acute Promyelocytic Leukemia). As to the kind of experiment: Cell viability analysis, leukemia HL-60. The following applies: Homo sapiens, HL-60, 72 h.
Another assay has as its system cancer cell lines. As to the kind of experiment: Cell viability analysis (WST-1) on cancer cell lines. The following applies: drug 10 μM, 72 hours, WST-1; Table 3. Background: Formazan colour is commonly taken as a measure of viable cells.
Assay [9] deals with HepG2 (Hepatocellular Carcinoma). As to the kind of experiment: Cell viability analysis, hepatic cancer HepG2. To be noted: Homo sapiens, HepG2, 72 h.
Assay [10] relates to PC3 (p53−) (Prostate Adenocarcinoma). In words: Cell viability analysis, prostate cancer PC3. The following applies: Homo sapiens, 72 h.
In assay [11] the test system is A375 (Amelanotic Melanoma). As to the kind of experiment: Cell viability analysis, skin cancer A375. The following applies: Homo sapiens, A-375, 72 h.
For assay [12], the system named is LoVo (Colorectal Adenocarcinoma). As to the kind of experiment: Cell viability analysis, colon cancer LoVo. To be noted: Homo sapiens, LoVo, 72 h, read-out: cell viability (survival rate), LoVo, drug 10 μM, 72 hours, WST-1, OD450 nm.
Setting [13] is: read-out: cell viability (survival rate), H1650, drug 10 μM, 72 hours, WST-1, OD450 nm.
The mark [14] stands for this setting: read-out: cell viability (survival rate), A549, drug 10 μM, 72 hours, WST-1, OD450 nm.
[15] abbreviates: read-out: cell viability (survival rate), AGS, drug 10 μM, 72 hours, WST-1, OD450 nm.
Setting [16] is: read-out: cell viability (survival rate), MKN-45, drug 10 μM, 72 hours, WST-1, OD450 nm.
Setting [17] is: read-out: cell viability (survival rate), HeLa, drug 10 μM, 72 hours, WST-1, OD450 nm.
[18] abbreviates: read-out: cell viability (survival rate), MCF7, drug 10 μM, 72 hours, WST-1, OD450 nm.
Setting [19] is: read-out: cell viability (survival rate), TSGH, drug 10 μM, 72 hours, WST-1, OD450 nm.
[20] abbreviates: read-out: cell viability (survival rate), HL-60, drug 10 μM, 72 hours, WST-1, OD450 nm.
Where [21] appears, read: read-out: cell viability (survival rate), HepG2, drug 10 μM, 72 hours, WST-1, OD450 nm.
Setting [22] is: read-out: cell viability (survival rate), PC3, drug 10 μM, 72 hours, WST-1, OD450 nm.
[23] abbreviates: read-out: cell viability (survival rate), A375, drug 10 μM, 72 hours, WST-1, OD450 nm.
Where [24] appears, read: drug 10 μM, 72 hours, WST-1, OD450 nm, read-out: cell viability (survival rate), H1650.
The mark [25] stands for this setting: drug 10 μM, 72 hours, WST-1, OD450 nm, read-out: cell viability (survival rate), A549.
[26] abbreviates: drug 10 μM, 72 hours, WST-1, OD450 nm, read-out: cell viability (survival rate), AGS.
Setting [27] is: drug 10 μM, 72 hours, WST-1, OD450 nm, read-out: cell viability (survival rate), MKN-45.
Where [28] appears, read: drug 10 μM, 72 hours, WST-1, OD450 nm, read-out: cell viability (survival rate), HeLa.
The mark [29] stands for this setting: drug 10 μM, 72 hours, WST-1, OD450 nm, read-out: cell viability (survival rate), MCF7.
The mark [30] stands for this setting: drug 10 μM, 72 hours, WST-1, OD450 nm, read-out: cell viability (survival rate), TSGH.
The mark [31] stands for this setting: drug 10 μM, 72 hours, WST-1, OD450 nm, read-out: cell viability (survival rate), HL-60.
[32] abbreviates: drug 10 μM, 72 hours, WST-1, OD450 nm, read-out: cell viability (survival rate), HepG2.
[33] abbreviates: drug 10 μM, 72 hours, WST-1, OD450 nm, read-out: cell viability (survival rate), PC3.
The mark [34] stands for this setting: drug 10 μM, 72 hours, WST-1, OD450 nm, read-out: cell viability (survival rate), A375.

In general, viability refers to a read-out of living cells in per cent, often relative to untreated cells. In the case of `Cc1ncc([N+](=O)[O-])n1CC(C)O` (stereo not drawn) [Secnidazole (Flagentyl), Secnidazole], the viability at 10 µM worked out at 46.8% in assay [1] (setting [13]); 69.2% in [2] (setting [14]); 78% in assay [3] (setting [15]); 77.2% in assay [4] (setting [16]); 124% in [5] (setting [17]); 81% in [6] (setting [18]). Besides, the viability at 10 µM in assay [7] (setting [19]) was found to be 52.1%; in assay [8] (setting [20]), 97.2%; in assay [9] (setting [21]), 99%; in assay [10] (setting [22]), 81.6%; in assay [11] (setting [23]), 117%; in [12], 85.4%. Further, the “inhibition effect on different cancer cell lines” value with cancer cell lines is recorded as “significant inhibition effect”.

As for `C[C@@H]1CN(c2c(F)c(N)c3c(=O)c(C(=O)O)cn(C4CC4)c3c2F)C[C@H](C)N1` [Sparfloxacin], the viability at 10 µM in assay [1] (setting [13]) was 88.5%; in [2] (setting [14]), 86.5%; in assay [3] (setting [15]), 79.9%; in [4] (setting [16]), 57.5%; in [5] (setting [17]), 88.3%; in assay [6] (setting [18]), 56.3%. Moreover, the viability at 10 µM in assay [7] (setting [19]) worked out at 68.1%; in [8] (setting [20]), 99.3%; in assay [9] (setting [21]), 97.6%; in assay [10] (setting [22]) it was 50.1%; in assay [11] (setting [23]), 82.6%; in assay [12], 97%. The “inhibition effect on different cancer cell lines” value with cancer cell lines was “significant inhibition effect”.

For `CC(=O)S[C@@H]1CC2=CC(=O)CC[C@]2(C)[C@H]2CC[C@@]3(C)[C@@H](CC[C@@]34CCC(=O)O4)[C@H]12` [Spironolactone], the viability at 10 µM amounted to 79.8% in assay [1] (setting [13]); 67.5% in assay [2] (setting [14]); 96.6% in assay [3] (setting [15]); 117% in [4] (setting [16]); 118% in [5] (setting [17]); 87.7% in assay [6] (setting [18]). Moreover, the viability at 10 µM in assay [7] (setting [19]) was 90.1%; in assay [8] (setting [20]), 57.2%; in [9] (setting [21]) it was 90.5%; in [10] (setting [22]), 88.5%; in assay [11] (setting [23]) it was 61%; in assay [12], 67.2%. The “inhibition effect on different cancer cell lines” value in the assay on cancer cell lines is recorded as “significant inhibition effect”.

For `Cc1cn([C@H]2C=C[C@@H](CO)O2)c(=O)[nH]c1=O` [Stavudine], the viability at 10 µM came to 50.2% in assay [1] (setting [24]); 38.9% in [2] (setting [25]); 39.2% in [3] (setting [26]); 66.8% in assay [4] (setting [27]); 98.1% in [5] (setting [28]); 56.6% in assay [6] (setting [29]). Also, the viability at 10 µM in assay [7] (setting [30]) was 112%; in assay [8] (setting [31]), 96%; in assay [9] (setting [32]), 97.1%; in [10] (setting [33]) it was 73.5%; in assay [11] (setting [34]) it was 56.1%; in assay [12], 70.7%. Besides, in the assay on cancer cell lines, the “inhibition effect on different cancer cell lines” value is “significant inhibition effect”.

As to `[H]/N=C(/N)N[C@H]1[C@H](O)[C@@H](O)[C@H](O[C@@H]2O[C@@H](C)[C@](O)(C=O)[C@H]2O[C@@H]2O[C@@H](CO)[C@H](O)[C@@H](O)[C@@H]2NC)[C@@H](N/C(N)=N\[H])[C@@H]1O` [Streptomycin sulfate], the viability at 10 µM in assay [1] (setting [13]) was determined as 40.6%; in assay [2] (setting [14]) it was 57.3%; in assay [3] (setting [15]) it was 65.5%; in assay [4] (setting [16]) it was 68.7%; in [5] (setting [17]), 88.9%; in [6] (setting [18]), 72%. Besides, the viability at 10 µM in [7] (setting [19]) was 23.3%; in assay [8] (setting [20]), 93.3%; in assay [9] (setting [21]), 84.5%; in assay [10] (setting [22]), 59.1%; in assay [11] (setting [23]), 77.5%; in assay [12], 46.6%. Also, in the assay with cancer cell lines, the “inhibition effect on different cancer cell lines” value is recorded as “significant inhibition effect”.

With `Nc1ccc(S(=O)(=O)Nc2ncccn2)cc1` [Sulfadiazine], the viability at 10 µM in assay [1] (setting [13]) turned out to be 69.2%; in assay [2] (setting [14]), 38.1%; in [3] (setting [15]) it was 91.8%; in assay [4] (setting [16]), 44.4%; in assay [5] (setting [17]), 43.7%; in assay [6] (setting [18]) it was 37.2%. Moreover, the viability at 10 µM in assay [7] (setting [19]) was 80.4%; in [8] (setting [20]) it was 106%; in assay [9] (setting [21]) it was 114%; in [10] (setting [22]) it was 70.1%; in [11] (setting [23]), 79.5%; in [12], 93.6%. Moreover, the “inhibition effect on different cancer cell lines” value in the assay on cancer cell lines was “significant inhibition effect”.

In the case of `COc1ncnc(NS(=O)(=O)c2ccc(N)cc2)c1OC` [Sulfadoxine (Sulphadoxine), Sulfadoxine], the viability at 10 µM in assay [1] (setting [24]) is 62.2%; in [2] (setting [25]), 96.6%; in assay [3] (setting [26]) it was 91.1%; in assay [4] (setting [27]), 87.4%; in assay [5] (setting [28]), 78.2%; in assay [6] (setting [29]), 132%. Further, the viability at 10 µM in [7] (setting [30]) is 64.3%; in assay [8] (setting [31]), 111%; in assay [9] (setting [32]) it was 90.5%; in [10] (setting [33]), 119%; in assay [11] (setting [34]), 65.5%; in assay [12], 92.9%. Further, the “inhibition effect on different cancer cell lines” value in the assay on cancer cell lines is listed as “significant inhibition effect”.

As to `COc1cnc(NS(=O)(=O)c2ccc(N)cc2)nc1` [Sulfameter (Bayrena), Sulfameter], the viability at 10 µM in assay [1] (setting [24]) was determined as 84.8%; in [2] (setting [25]), 59%; in assay [3] (setting [26]) it was 67.4%; in assay [4] (setting [27]), 58.6%; in assay [5] (setting [28]), 78.4%; in [6] (setting [29]), 51.7%. Moreover, the viability at 10 µM amounted to 78.6% in assay [7] (setting [30]); 110% in assay [8] (setting [31]); 95.5% in [9] (setting [32]); 90.2% in assay [10] (setting [33]); 89.2% in assay [11] (setting [34]); 89.9% in assay [12]. Besides, the “inhibition effect on different cancer cell lines” value in the assay with cancer cell lines was “significant inhibition effect”.

Consider `Cc1nnc(NS(=O)(=O)c2ccc(N)cc2)s1` [Sulfamethizole (Proklar), Sulfamethizole], for which the viability at 10 µM in assay [1] (setting [13]) was determined as 99.2%; in assay [2] (setting [14]) it was 90.4%; in assay [3] (setting [15]), 86.6%; in assay [4] (setting [16]), 84.6%; in [5] (setting [17]), 105%; in assay [6] (setting [18]) it was 100%. The viability at 10 µM worked out at 114% in assay [7] (setting [19]); 104% in assay [8] (setting [20]); 95% in assay [9] (setting [21]); 86% in assay [10] (setting [22]); 99.1% in assay [11] (setting [23]); 86.4% in assay [12]. Further, the “inhibition effect on different cancer cell lines” value in the assay with cancer cell lines is recorded as “significant inhibition effect”.
